Laboratory results published in article PMC8766756, “Insights on Cancer Cell Inhibition, Subcellular Activities, and Kinase Profile of Phenylacetamides Pending 1H-Imidazol-5-One Variants” (Frontiers in Pharmacology, 2022).
Values joined by “and” are separate entries in the source; they are usually repeats but may differ in a detail not shown here. Equal values may be shown once.

Experiments:
Assay in all cases: PamChip tyrosine kinase microarray
Assay type in all cases: biochemical
Conditions in all cases: 0.1 µM, HL60 lysate
IGF1R (P08069) = target: T1, IGF1R (P08069) (Homo sapiens, UniProt P08069)
T1 construct: purchased PamGene (PamChip PTK array, Upstream Kinase Analysis)
T1 sequence (P08069 31-1367): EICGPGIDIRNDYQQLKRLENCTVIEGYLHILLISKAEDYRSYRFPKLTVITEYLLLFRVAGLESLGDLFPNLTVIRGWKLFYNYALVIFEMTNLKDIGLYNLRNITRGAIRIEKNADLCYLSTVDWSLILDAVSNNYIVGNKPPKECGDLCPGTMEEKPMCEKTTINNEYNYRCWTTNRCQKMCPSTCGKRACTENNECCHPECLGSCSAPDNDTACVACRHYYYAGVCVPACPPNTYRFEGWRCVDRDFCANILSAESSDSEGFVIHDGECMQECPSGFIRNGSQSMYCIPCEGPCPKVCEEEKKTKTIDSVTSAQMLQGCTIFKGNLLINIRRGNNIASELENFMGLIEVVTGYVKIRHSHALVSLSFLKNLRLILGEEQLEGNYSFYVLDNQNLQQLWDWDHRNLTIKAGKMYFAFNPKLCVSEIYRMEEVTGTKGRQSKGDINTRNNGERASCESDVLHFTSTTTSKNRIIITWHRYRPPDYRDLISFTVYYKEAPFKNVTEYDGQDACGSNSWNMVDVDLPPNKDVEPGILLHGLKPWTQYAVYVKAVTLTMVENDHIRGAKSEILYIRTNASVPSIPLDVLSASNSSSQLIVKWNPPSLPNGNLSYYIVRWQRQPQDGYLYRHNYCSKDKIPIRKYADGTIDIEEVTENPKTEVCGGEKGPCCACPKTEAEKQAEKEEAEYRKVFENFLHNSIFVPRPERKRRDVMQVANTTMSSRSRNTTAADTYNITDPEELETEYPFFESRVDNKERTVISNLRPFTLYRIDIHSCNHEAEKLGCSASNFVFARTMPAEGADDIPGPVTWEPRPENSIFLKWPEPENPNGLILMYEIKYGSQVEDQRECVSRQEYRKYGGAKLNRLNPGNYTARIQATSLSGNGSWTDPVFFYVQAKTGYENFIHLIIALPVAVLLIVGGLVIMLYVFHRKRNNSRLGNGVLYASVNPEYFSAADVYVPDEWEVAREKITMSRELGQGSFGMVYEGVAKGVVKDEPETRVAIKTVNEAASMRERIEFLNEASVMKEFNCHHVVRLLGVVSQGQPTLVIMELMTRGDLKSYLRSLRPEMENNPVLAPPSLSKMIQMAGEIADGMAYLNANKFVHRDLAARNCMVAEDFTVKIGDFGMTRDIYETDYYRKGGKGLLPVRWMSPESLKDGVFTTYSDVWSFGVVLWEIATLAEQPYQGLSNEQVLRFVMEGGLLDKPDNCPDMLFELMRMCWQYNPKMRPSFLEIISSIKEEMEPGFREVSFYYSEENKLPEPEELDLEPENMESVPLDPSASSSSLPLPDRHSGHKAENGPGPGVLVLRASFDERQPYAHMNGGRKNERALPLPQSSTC
Procedure, shortened: (§1)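 HL60 (AML) cell lysate was spiked with compound at 0.001, 0.01, 0.1, 1, 10 and 50 µM, or 2% v/v DMSO as control, then profiled in technical replicates on a tyrosine kinase peptide array of 196 phosphosites. Kinase activity was inferred from peptide-set changes using an upstream kinase tool.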

Axl (P30530) = target: T2, Axl (P30530) (Homo sapiens, UniProt P30530)
T2 construct: purchased PamGene (PamChip PTK array, Upstream Kinase Analysis)
T2 sequence (P30530 26-894): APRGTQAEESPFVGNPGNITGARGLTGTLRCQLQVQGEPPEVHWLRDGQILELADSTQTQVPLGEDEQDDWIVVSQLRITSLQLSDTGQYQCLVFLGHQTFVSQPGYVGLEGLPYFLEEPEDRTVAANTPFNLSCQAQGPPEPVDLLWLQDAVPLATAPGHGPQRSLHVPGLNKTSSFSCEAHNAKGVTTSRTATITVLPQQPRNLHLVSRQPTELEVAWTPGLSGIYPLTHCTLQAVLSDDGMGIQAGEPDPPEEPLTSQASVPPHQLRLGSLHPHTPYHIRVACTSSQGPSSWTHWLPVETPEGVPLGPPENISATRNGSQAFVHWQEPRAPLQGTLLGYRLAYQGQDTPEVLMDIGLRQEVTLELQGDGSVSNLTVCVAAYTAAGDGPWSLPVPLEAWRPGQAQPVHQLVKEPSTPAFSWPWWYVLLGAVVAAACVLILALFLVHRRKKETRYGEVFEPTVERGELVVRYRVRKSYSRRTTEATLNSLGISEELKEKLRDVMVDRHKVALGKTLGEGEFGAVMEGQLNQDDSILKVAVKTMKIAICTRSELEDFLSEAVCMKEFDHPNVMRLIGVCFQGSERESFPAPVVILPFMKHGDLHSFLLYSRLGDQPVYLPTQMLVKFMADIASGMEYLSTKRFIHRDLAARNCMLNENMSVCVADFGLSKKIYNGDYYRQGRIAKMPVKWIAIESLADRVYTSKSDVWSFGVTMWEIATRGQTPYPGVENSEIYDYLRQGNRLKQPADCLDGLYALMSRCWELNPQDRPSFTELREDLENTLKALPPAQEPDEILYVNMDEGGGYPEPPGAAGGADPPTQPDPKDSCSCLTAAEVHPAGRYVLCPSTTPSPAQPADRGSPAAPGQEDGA
Procedure, shortened: as §1

Kit (P10721) = target: T3, Kit (P10721) (Homo sapiens, UniProt P10721)
T3 construct: purchased PamGene (PamChip PTK array, Upstream Kinase Analysis)
T3 sequence (P10721 26-976): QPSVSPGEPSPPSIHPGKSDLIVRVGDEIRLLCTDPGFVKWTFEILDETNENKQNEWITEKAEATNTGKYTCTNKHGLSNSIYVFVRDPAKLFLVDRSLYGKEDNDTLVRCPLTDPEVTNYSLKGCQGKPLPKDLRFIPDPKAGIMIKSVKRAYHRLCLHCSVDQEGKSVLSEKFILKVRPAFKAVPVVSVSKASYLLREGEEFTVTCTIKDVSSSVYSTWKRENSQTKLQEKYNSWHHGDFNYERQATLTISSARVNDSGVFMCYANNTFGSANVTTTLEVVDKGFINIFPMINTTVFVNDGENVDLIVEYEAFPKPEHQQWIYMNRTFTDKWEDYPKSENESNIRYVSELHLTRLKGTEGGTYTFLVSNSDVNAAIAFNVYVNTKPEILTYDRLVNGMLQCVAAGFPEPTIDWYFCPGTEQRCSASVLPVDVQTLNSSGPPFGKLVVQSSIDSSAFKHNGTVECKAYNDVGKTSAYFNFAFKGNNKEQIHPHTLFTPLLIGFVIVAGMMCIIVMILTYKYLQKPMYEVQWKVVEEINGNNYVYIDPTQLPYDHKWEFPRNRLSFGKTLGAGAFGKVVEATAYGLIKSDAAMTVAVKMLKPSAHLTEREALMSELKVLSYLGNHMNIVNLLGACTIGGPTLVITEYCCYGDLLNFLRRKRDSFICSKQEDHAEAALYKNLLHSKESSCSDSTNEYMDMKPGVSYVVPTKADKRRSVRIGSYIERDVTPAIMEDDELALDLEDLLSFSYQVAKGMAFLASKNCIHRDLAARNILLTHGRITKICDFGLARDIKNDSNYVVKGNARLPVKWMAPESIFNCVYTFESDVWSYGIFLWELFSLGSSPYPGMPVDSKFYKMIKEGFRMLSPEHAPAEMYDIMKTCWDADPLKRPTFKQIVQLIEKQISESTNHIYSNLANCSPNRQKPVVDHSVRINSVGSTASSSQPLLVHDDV
Procedure, shortened: as §1

BLK (P51451) = target: T4, BLK (P51451) (Homo sapiens, UniProt P51451)
T4 construct: purchased PamGene (PamChip PTK array, Upstream Kinase Analysis)
T4 sequence (P51451 whole entry): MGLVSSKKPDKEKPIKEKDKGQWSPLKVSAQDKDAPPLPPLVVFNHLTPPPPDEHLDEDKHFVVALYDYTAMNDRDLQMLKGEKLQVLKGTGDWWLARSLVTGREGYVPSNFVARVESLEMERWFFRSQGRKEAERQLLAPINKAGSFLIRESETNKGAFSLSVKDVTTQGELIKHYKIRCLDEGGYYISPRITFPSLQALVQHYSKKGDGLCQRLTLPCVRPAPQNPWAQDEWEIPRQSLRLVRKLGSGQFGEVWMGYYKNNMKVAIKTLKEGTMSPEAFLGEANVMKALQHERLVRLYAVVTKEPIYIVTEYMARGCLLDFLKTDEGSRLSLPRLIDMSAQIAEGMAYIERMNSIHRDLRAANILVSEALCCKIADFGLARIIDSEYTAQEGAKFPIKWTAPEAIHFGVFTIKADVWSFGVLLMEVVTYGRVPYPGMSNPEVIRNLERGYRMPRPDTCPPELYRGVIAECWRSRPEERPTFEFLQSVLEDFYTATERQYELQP
Procedure, shortened: as §1

FLT1 (P17948) = target: T5, FLT1 (P17948) (Homo sapiens, UniProt P17948)
T5 construct: purchased PamGene (PamChip PTK array, Upstream Kinase Analysis)
T5 sequence (P17948 27-1338): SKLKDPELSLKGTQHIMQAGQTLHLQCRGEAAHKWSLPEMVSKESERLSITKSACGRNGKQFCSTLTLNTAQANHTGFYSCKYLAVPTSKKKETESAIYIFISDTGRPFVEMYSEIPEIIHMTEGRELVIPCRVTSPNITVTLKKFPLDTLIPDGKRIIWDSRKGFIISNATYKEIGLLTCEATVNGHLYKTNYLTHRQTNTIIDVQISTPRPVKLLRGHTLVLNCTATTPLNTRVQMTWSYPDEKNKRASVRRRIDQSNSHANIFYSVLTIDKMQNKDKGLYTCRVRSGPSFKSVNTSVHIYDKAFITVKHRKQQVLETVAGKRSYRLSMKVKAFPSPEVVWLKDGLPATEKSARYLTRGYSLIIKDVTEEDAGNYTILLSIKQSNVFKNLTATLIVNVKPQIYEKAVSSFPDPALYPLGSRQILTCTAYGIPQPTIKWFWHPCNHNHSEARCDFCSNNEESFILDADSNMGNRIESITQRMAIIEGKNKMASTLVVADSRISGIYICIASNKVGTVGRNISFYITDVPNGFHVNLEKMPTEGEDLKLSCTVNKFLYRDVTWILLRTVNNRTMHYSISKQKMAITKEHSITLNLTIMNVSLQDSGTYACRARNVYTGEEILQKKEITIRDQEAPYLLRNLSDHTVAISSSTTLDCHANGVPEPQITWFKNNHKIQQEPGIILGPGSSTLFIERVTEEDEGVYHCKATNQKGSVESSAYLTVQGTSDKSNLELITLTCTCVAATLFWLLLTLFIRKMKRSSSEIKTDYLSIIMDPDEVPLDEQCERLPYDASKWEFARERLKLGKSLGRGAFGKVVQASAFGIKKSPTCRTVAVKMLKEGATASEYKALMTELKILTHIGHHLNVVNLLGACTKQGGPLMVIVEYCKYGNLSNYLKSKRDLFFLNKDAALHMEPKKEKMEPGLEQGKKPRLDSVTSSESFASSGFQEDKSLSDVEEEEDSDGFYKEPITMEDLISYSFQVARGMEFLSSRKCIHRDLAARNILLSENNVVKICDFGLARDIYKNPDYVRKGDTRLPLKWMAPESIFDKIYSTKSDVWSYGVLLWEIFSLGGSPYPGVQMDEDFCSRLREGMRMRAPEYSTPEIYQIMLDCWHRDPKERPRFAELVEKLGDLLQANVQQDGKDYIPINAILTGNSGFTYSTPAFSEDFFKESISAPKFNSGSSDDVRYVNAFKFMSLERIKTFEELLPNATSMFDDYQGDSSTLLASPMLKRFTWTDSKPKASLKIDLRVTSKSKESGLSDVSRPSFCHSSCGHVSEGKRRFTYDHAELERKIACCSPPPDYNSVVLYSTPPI
Procedure, shortened: as §1

CSK (P41240) = target: T6, CSK (P41240) (Homo sapiens, UniProt P41240)
T6 construct: purchased PamGene (PamChip PTK array, Upstream Kinase Analysis)
Procedure, shortened: as §1

EphA4 (P54764) = target: T7, EphA4 (P54764) (Homo sapiens, UniProt P54764)
T7 construct: purchased PamGene (PamChip PTK array, Upstream Kinase Analysis)
T7 sequence (P54764 20-986): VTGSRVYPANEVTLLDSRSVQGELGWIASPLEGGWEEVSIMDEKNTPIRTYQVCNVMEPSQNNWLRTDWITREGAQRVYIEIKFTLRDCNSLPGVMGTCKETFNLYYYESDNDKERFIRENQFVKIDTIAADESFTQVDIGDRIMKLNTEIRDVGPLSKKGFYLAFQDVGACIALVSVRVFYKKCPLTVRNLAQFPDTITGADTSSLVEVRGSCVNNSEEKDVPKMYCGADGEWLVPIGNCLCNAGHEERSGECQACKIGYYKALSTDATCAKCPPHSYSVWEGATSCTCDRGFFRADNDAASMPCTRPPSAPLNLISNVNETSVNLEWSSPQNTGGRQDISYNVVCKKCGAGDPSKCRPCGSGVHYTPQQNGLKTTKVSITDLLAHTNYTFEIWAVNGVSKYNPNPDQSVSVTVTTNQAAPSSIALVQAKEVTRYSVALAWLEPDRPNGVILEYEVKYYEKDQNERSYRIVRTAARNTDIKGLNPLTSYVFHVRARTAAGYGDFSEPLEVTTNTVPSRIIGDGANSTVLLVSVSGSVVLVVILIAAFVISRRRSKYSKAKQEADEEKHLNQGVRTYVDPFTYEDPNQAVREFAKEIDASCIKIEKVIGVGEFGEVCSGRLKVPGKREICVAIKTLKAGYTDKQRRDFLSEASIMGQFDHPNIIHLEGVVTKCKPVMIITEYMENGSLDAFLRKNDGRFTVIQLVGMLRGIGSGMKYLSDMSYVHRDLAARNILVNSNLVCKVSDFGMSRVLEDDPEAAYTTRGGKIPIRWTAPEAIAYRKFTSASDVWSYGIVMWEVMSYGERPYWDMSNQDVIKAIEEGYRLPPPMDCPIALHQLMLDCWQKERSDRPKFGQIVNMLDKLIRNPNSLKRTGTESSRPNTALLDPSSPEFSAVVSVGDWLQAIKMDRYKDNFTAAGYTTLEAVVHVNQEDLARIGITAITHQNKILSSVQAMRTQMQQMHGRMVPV
Procedure, shortened: as §1

COc1ccc(/C=C2\N=C(C)N(c3ccc(CC(=O)NCc4ccccc4)cc3)C2=O)cc1 [Compound 4c, (Z)-N-Benzyl-2-(4-(4-(4-methoxybenzylidene)-2-methyl-5-oxo-4,5-dihydro-1H-imidazol-1-yl)phenyl)acetamide]
Mean Final score (Kinase score) (IGF1R (P08069)): 2.173 | Mean Kinase Statistic (IGF1R (P08069)): -1.034 | Mean Significance Score (IGF1R (P08069)): 2.048 | Mean Specificity Score (IGF1R (P08069)): 0.1033 | Mean Final score (Kinase score) (Axl (P30530)): 2.569 | Mean Kinase Statistic (Axl (P30530)): -1.219 | Mean Significance Score (Axl (P30530)): 2.048 | Mean Specificity Score (Axl (P30530)): 0.5684 | Mean Final score (Kinase score) (Kit (P10721)): 2.581 | Mean Kinase Statistic (Kit (P10721)): -1.291 | Mean Significance Score (Kit (P10721)): 2.048 | Mean Specificity Score (Kit (P10721)): 0.5837 | Mean Final score (Kinase score) (BLK (P51451)): 1.48 | Mean Kinase Statistic (BLK (P51451)): -1.015 | Mean Significance Score (BLK (P51451)): 1.433 | Mean Specificity Score (BLK (P51451)): 0.07394 | Mean Significance Score (FLT1 (P17948)): 2.048 | Mean Specificity Score (FLT1 (P17948)): 1.113 | Mean Final score (Kinase score) (FLT1 (P17948); listed as KIM-161): 3.23 and 3.228 | Mean Significance Score (CSK (P41240)): 2.048 | Mean Specificity Score (CSK (P41240)): 1.0649 | Mean Final score (Kinase score) (CSK (P41240); listed as KIM-161): 3.09 | Mean Final score (Kinase score) (EphA4 (P54764)): 1.356 | Mean Kinase Statistic (EphA4 (P54764)): -0.7819 | Mean Significance Score (EphA4 (P54764)): 1.252 | Mean Specificity Score (EphA4 (P54764)): 0.07789
